Experimental data published in PubChem BioAssay (NCI).
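A five-concentration, 48-hour dose response in 96-well plates underlies each endpoint, interpolated linearly between surrounding concentrations. GI50 = concentration required for 50% inhibition of growth. TGI denotes the concentration required for complete inhibition of growth.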

Experiments:
Experiment in all cases: NCI tumour cell line growth inhibition, 48 h
HCC-2998 colon = test system: HCC-2998 colon
HOP-62 NSCLC = test system: HOP-62 NSCLC
IGROV1 ovarian = test system: IGROV1 ovarian
NCI-H23 lung = test system: NCI-H23 lung
OVCAR-4 ovarian = test system: OVCAR-4 ovarian
RXF 393 renal = test system: RXF 393 renal
SF-539 CNS = test system: SF-539 CNS
SN12C renal = test system: SN12C renal
SF-268 CNS = test system: SF-268 CNS
MCF7 breast = test system: MCF7 breast

Q: With `N#CC(C(=O)/C(=N/NC(=O)c1ccccc1O)C(C#N)c1ccc(Br)cc1)c1ccc(Br)cc1` (centres undefined) as the compound, how does the TGI (HCC-2998 colon) read?
A: 24.7 µM

Q: And the TGI (HOP-62 NSCLC)?
A: 29.5 µM

Q: And the TGI (IGROV1 ovarian)?
A: 33.3 µM

Q: What about the TGI (NCI-H23 lung) of the same compound?
A: 16.4 µM

Q: And the TGI (OVCAR-4 ovarian)?
A: 29.4 µM

Q: And the TGI (RXF 393 renal)?
A: 16 µM

Q: And the TGI (SF-539 CNS)?
A: 25.3 µM

Q: And the TGI (SN12C renal)?
A: 21.9 µM

Q: Which TGI (HCC-2998 colon) does the source give for `N#CCCN(C1=NN(C(=O)CC(=O)Nc2ccc(Cl)cc2)C(c2ccccc2)C1)c1ccc(Cl)cc1` (centres undefined) here?
A: > 100 µM

Q: And the TGI (HOP-62 NSCLC)?
A: > 100 µM

Q: And the TGI (IGROV1 ovarian)?
A: > 100 µM

Q: What about the TGI (NCI-H23 lung) of the same compound?
A: > 100 µM

Q: And the TGI (OVCAR-4 ovarian)?
A: > 100 µM

Q: And the TGI (RXF 393 renal)?
A: > 100 µM

Q: And the TGI (SF-268 CNS)?
A: > 100 µM

Q: And the TGI (SF-539 CNS)?
A: > 100 µM

Q: What about the TGI (SN12C renal) of the same compound?
A: > 100 µM

Q: What does the source list for `CC[O-].CC[O-].COc1ccc(C(=O)[CH-]C(C)=O)cc1OC.COc1ccc(C(=O)[CH-]C(C)=O)cc1OC.[Ti+4]`?
A: GI50 (HCC-2998 colon): > 100 µM; TGI (HCC-2998 colon): > 100 µM; GI50 (HOP-62 NSCLC): 46.2 µM; TGI (HOP-62 NSCLC): > 100 µM; GI50 (IGROV1 ovarian): 54.8 µM; TGI (IGROV1 ovarian): > 100 µM; GI50 (NCI-H23 lung): > 100 µM; TGI (NCI-H23 lung): > 100 µM; GI50 (OVCAR-4 ovarian): > 100 µM; TGI (OVCAR-4 ovarian): > 100 µM; GI50 (RXF 393 renal): 34.1 µM; TGI (RXF 393 renal): 99.7 µM; GI50 (SF-268 CNS): > 100 µM; TGI (SF-268 CNS): > 100 µM; GI50 (SF-539 CNS): 38.9 µM; TGI (SF-539 CNS): > 100 µM; GI50 (SN12C renal): > 100 µM; TGI (SN12C renal): > 100 µM

Q: Which results are given for `Cc1ccccc1C=NC12CC3CC(CC(C3)C1)C2`?
A: TGI (HCC-2998 colon): > 100 µM; TGI (HOP-62 NSCLC): > 100 µM; TGI (IGROV1 ovarian): > 100 µM; TGI (NCI-H23 lung): > 100 µM; TGI (OVCAR-4 ovarian): > 100 µM; TGI (RXF 393 renal): > 100 µM; TGI (SF-268 CNS): > 100 µM; TGI (SF-539 CNS): > 100 µM; TGI (SN12C renal): > 100 µM

Q: With `O=C1Nc2ccc(O)cc2/C1=C\c1ccncc1` as the compound, how does the GI50 (HOP-62 NSCLC) read?
A: 23.9 µM

Q: And the TGI (HOP-62 NSCLC)?
A: 56.4 µM

Q: What about the GI50 (IGROV1 ovarian) of the same compound?
A: 4.27 µM

Q: And the TGI (IGROV1 ovarian)?
A: 41.6 µM

Q: And the GI50 (MCF7 breast)?
A: 4.18 µM

Q: And the TGI (MCF7 breast)?
A: 38.2 µM

Q: And the GI50 (NCI-H23 lung)?
A: 25.1 µM

Q: What about the TGI (NCI-H23 lung) of the same compound?
A: 62.4 µM

Q: What about the GI50 (SF-268 CNS) of the same compound?
A: 12 µM

Q: What about the TGI (SF-268 CNS) of the same compound?
A: 36.3 µM

Q: What about the GI50 (SF-539 CNS) of the same compound?
A: 6.11 µM

Q: What about the TGI (SF-539 CNS) of the same compound?
A: 23.1 µM

Q: And the GI50 (SN12C renal)?
A: 16.2 µM

Q: And the TGI (SN12C renal)?
A: 44.3 µM

Q: For `CCC[CH2][Sn]1([CH2]CCC)[O]C(=O)CN=C(C)c2ccccc2[O]1`, which GI50 (HCC-2998 colon) is on record?
A: 1.53 µM

Q: What about the TGI (HCC-2998 colon) of the same compound?
A: 2.92 µM

Q: What about the GI50 (HOP-62 NSCLC) of the same compound?
A: 5.21 µM

Q: What about the TGI (HOP-62 NSCLC) of the same compound?
A: > 100 µM

Q: What about the GI50 (IGROV1 ovarian) of the same compound?
A: 2.83 µM

Q: What about the TGI (IGROV1 ovarian) of the same compound?
A: > 100 µM

Q: And the GI50 (NCI-H23 lung)?
A: 0.429 µM

Q: And the TGI (NCI-H23 lung)?
A: 1.78 µM

Q: And the GI50 (OVCAR-4 ovarian)?
A: 1.73 µM

Q: What about the TGI (OVCAR-4 ovarian) of the same compound?
A: 3.62 µM

Q: And the GI50 (RXF 393 renal)?
A: 0.222 µM

Q: What about the TGI (RXF 393 renal) of the same compound?
A: 0.786 µM

Q: And the GI50 (SF-268 CNS)?
A: 0.306 µM

Q: What about the TGI (SF-268 CNS) of the same compound?
A: 1.65 µM

Q: What about the GI50 (SF-539 CNS) of the same compound?
A: 2.78 µM

Q: And the TGI (SF-539 CNS)?
A: > 100 µM

Q: What about the GI50 (SN12C renal) of the same compound?
A: 1.13 µM

Q: What about the TGI (SN12C renal) of the same compound?
A: 2.34 µM

Q: With `C/C=C(\C)c1cc(=O)c2c(C)cc3c(c2o1)C(OC)(OC(C)=O)c1c(O)c(C2CC(C)(N(C)C)C(OC(C)=O)C(C)O2)cc(C2CC(N(C)C)C(OC(C)=O)C(C)O2)c1C3=O` (centres undefined) as the compound, how does the TGI (HOP-62 NSCLC) read?
A: > 100 µM

Q: And the TGI (IGROV1 ovarian)?
A: 57.1 µM

Q: And the TGI (MCF7 breast)?
A: > 100 µM

Q: And the TGI (NCI-H23 lung)?
A: 2.42 µM

Q: What about the TGI (SF-268 CNS) of the same compound?
A: 4.89 µM

Q: What about the TGI (SN12C renal) of the same compound?
A: 5.23 µM

Q: For `O=C(CC(=O)N1N=C(n2ccc3ccccc32)CC1c1ccccc1)Nc1ccc(Cl)cc1` (centres undefined), which TGI (HCC-2998 colon) is on record?
A: > 100 µM

Q: And the TGI (HOP-62 NSCLC)?
A: > 100 µM

Q: And the TGI (IGROV1 ovarian)?
A: > 100 µM

Q: And the TGI (NCI-H23 lung)?
A: > 100 µM

Q: And the TGI (OVCAR-4 ovarian)?
A: > 100 µM

Q: And the TGI (RXF 393 renal)?
A: > 100 µM

Q: And the TGI (SF-268 CNS)?
A: > 100 µM

Q: And the TGI (SF-539 CNS)?
A: > 100 µM

Q: What about the TGI (SN12C renal) of the same compound?
A: > 100 µM

Q: With `CCc1cccc(C)c1N1C(=O)C(=O)C(c2nc3ccccc3o2)/C(=N/NC(=S)NN)C1=O` (centres undefined) as the compound, how does the TGI (HOP-62 NSCLC) read?
A: > 100 µM

Q: What about the TGI (IGROV1 ovarian) of the same compound?
A: > 100 µM

Q: And the TGI (NCI-H23 lung)?
A: > 100 µM

Q: What about the TGI (OVCAR-4 ovarian) of the same compound?
A: > 100 µM

Q: What about the TGI (RXF 393 renal) of the same compound?
A: > 100 µM

Q: What about the TGI (SF-268 CNS) of the same compound?
A: > 100 µM

Q: What about the TGI (SF-539 CNS) of the same compound?
A: > 100 µM

Q: What about the TGI (SN12C renal) of the same compound?
A: > 100 µM
